Assay results: patent US7273848B2, “Apolipoprotein A-I agonists and their use to treat dyslipidemic disorders” (priority 1997, dated 2007)
Non-standard residues stand in square brackets, D forms with d. Residues, ends and D or L forms follow the SMILES beside them. No end group written: not given here. Aib = CC(C)(N)C(=O)O

Assays:
[1] = Circular dichroism helicity determination; type: physicochemical; settings: percent helicity; for He (%) TFE: 5 μM peptide, 90% vol TFE; for He (%) TFE / He (%) SUVs: 37° C.; for He (%) free: unbound peptide 5 μM in 5 mM phosphate buffer, pH 7.4, 37° C.; for He (%) mics: peptide-micelle complexes, Ri=100, 37° C.; for He (%) SUVs: peptide-SUV complexes (20:1 EPC:Chol., Ri=30 and Ri=50)
Method: Far UV circular dichroism spectra were recorded between 190 and 260 nm (in 0.5 nm or 0.2 nm increments) with a AVIV62DS spectrometer (AVIV Associates, Lakewood, N.J., USA) equipped with a thermoelectric cell holder and sample changer. The instrument was calibrated with (+)-10-[…]. Between one and three scans were collected for each sample, using 10 cm, 5 cm, 1 cm and 0.1 cm path length quartz Suprasil cells, respectively, for peptide concentrations of 10^−7 M to 10^−4 M. The bandwidth was fixed at 1.5 nm and the scan speed to 1s per wavelength step. The reported data are the mean of at least 2 or 3 independent measurements.
After background substraction, spectra were converted to molar ellipticity (θ) per residue in deg. […] dmol^−1. The peptide concentration was determined by amino acid analysis and also by absorption spectrometry on a Perkin Elmer Lambda 17 UV/Visible spectrophotometer when the peptide contained a chromophore (tryptophane, dansyl, naphtylalanine).
CD spectra were obtained with free, unbound peptide (5 μM in 5 mM phosphate buffer, pH 7.4); with peptide-SUV complexes (20:1 EPC:Chol., Ri=30 and Ri=50); with peptide-micelle complexes (1-myristoyl-2-hydroxy-sn-glycero-3-phosphatidyl choline, Ri=100); and with free, unbound peptide in the presence of 2,2,2-trifluoroethanol (TFE) (5 μM peptide, 90% vol TFE).
The SUVs were obtained by dispersing the lipids (10 mM, 20:1 EPC:Chol., Avanti Polar Lipids, AL) in phosphate buffer (5 mM, pH 7.4) with bubbling N2 for 5 min., followed by sonication (1.5 hr.) in a bath sonicator. The homogeneity of the preparation was checked by FPLC.
The micelles were obtained by dispersing the lipid (6 mM 1-myristoyl-2-hydroxy-sn-glycero-3-phosphatidyl choline, Avanti Polar Lipids, AL) in phosphate buffer (5 mM, pH 7.4) with bubbling N2 for 5 min., followed by vortexing.
To obtain the peptide-SUV complexes, SUVs were added to the peptide (5 μM in 5 mM phosphate buffer, pH 7.4) at a phospholipid-peptide molar ratio (Ri) of 30 or 50.
To obtain the peptide-micelle complexes, micelles were added to the peptide (5 μM in 5 mM phosphate buffer, pH 7.4) at a Ri of 100.
All spectra were recorded at 37° C.
The degree of helicity of the peptides in the various conditions was determined from the mean residue ellipticity at 222 nm (Chen et al., 1974, Biochemistry 13:3350-3359) or by comparing the CD spectra obtained to reference spectra available on databases (16 helical reference spectra from Provencher & Glockner, 1981, Biochemistry 20:33-37; denatured protein reference spectra from Venyaminov et al., 1993, Anal. Biochem. 214:17-24) using the CONTIN curve-fitting algorithm version 2DP, CD-1 pack (August 1982) (Provencher, 1982, Comput. Phys. Commun. 27:213-227, 229-242). Acceptable fit was determined using the statistical analysis methodology provided by the CONTIN algorithm. The error of all methods was ±5% helicity.

[2] = molecular target: T1, LCAT (purified from human plasma) (Homo sapiens, UniProt P04180); assay: LCAT activation assay; type: biochemical; settings: LCAT activation as compared with native human ApoA-I (= 100%), equivalent masses
T1 construct: from tissue; host or cells: human plasma
T1 sequence (P04180 25-440): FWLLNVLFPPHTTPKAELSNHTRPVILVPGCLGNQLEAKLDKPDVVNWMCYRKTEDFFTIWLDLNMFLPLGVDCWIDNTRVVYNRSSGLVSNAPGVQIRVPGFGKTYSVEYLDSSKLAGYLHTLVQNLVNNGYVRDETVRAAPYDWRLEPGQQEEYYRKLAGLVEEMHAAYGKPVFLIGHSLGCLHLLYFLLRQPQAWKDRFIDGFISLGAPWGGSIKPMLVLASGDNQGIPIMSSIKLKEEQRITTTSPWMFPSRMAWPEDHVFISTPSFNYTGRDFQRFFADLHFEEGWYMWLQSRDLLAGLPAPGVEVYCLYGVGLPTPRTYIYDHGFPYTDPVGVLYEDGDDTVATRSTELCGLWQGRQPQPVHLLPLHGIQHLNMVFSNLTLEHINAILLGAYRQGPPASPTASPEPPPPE
In short: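 Activity was expressed as percentage conversion of radiolabelled cholesterol to cholesteryl ester, normalised to native ApoA-I as 100%. LCAT purified from human plasma was added to peptide-preincubated EPC or POPC/cholesterol (20:1) small unilamellar vesicles at pH 7.4. Specific activity is the peptide concentration reaching the conversion plateau at a fixed timepoint.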

Row | He (%) TFE [1] [%] | He (%) free [1] [%] | ACTIVITY (%) LCAT [2] [%] | He (%) mics [1] [%] | He (%) SUVs [1] [%] | Compound
1 | 62 | 54 | 47 | 71 | 67 | PVLDLFRELLNELLQKLK [compound 209]
2 | 100 | 100 | 7 | 100 |  | CC(C)C[C@@H](NC(=O)[C@@H](C)NC(=O)[C@@H](CCC(=O)O)NC(=O)[C@@H](CC(C)C)NC(=O)[C@@H](CC(C)C)NC(=O)[C@@H](CCC(=O)O)NC(=O)[C@@H](CCC(N)=O)NC(=O)[C@@H](CC(C)C)NC(=O)[C@@H](CC(C)C)NC(=O)[C@@H](CCC(=O)O)NC(=O)[C@@H](CCCCN)NC(=O)[C@@H](CC(C)C)NC(=O)[C@@H](CC(C)C)NC(=O)[C@@H](CCC(=O)O)NC(=O)[C@@H](CC(C)C)NC(=O)[C@@H](CC(C)C)NC(=O)[C@H]1CCCN1)C(=O)N[C@H](CCCCN)C(=O)N[C@H](CCC(N)=O)C(=O)N[C@H](CCCCN)C(=O)N[C@H](CC(C)C)C(=O)N[C@H](CCCCN)C(=O)O [compound 87, pllellkellqellealkqklk] (H-[dP][dL][dL][dE][dL][dL][dK][dE][dL][dL][dQ][dE][dL][dL][dE][dA][dL][dK][dQ][dK][dL][dK]-OH)
3 |  | 18 | 3 | 45 | 13 | EWLKAFYEKVLEKLKELF [peptide 248, reference compound]
4 | 58 | 19 | 0 | 45 | 23 | PVLDEFREKLNERLEALKQKLK [peptide 109, reference compound]
5 |  | 30 | 11 | 66 | 45 | LDDLLQKWAEAFNQLLKK [peptide 237, reference compound]
6 | 100 | 43 | 6 | 100 |  | CC(C)C[C@H](NC(=O)[C@H](C)NC(=O)[C@H](CCC(=O)O)NC(=O)[C@H](CC(C)C)NC(=O)C(C)(C)NC(=O)[C@H](CCC(=O)O)NC(=O)[C@H](CC(N)=O)NC(=O)[C@H](CC(C)C)NC(=O)[C@H](CC(C)C)NC(=O)[C@H](CCC(=O)O)NC(=O)[C@H](CCCNC(=N)N)NC(=O)[C@H](Cc1ccccc1)NC(=O)[C@H](CCC(=O)O)NC(=O)[C@H](CC(=O)O)NC(=O)[C@H](CC(C)C)NC(=O)[C@@H](NC(=O)[C@@H]1CCCN1)C(C)C)C(=O)N[C@@H](CCCCN)C(=O)N[C@@H](CCC(N)=O)C(=O)N[C@@H](CCCCN)C(=O)N[C@@H](CC(C)C)C(=O)N[C@@H](CCCCN)C(=O)O [compound 91, PVLDEFRELLNEXLEALKQKLK] (H-PVLDEFRELLNE[Aib]LEALKQKLK-OH)

Second part, the compound before the results:

Row | Compound | He (%) TFE [1] [%] | He (%) free [1] [%] | ACTIVITY (%) LCAT [2] [%] | He (%) mics [1] [%] | He (%) SUVs [1] [%]
7 | Ac-PVLDLFKELLEELKQKLK-NH2 [compound 192] | 56 | 36 | 100 |  | 
8 | CC(C)C[C@H](NC(=O)[C@H](C)NC(=O)[C@H](CCC(=O)O)NC(=O)[C@H](CC(C)C)NC(=O)C(C)(C)NC(=O)[C@H](CCC(=O)O)NC(=O)[C@H](Cc1ccccc1)NC(=O)[C@H](CC(C)C)NC(=O)[C@H](CC(C)C)NC(=O)[C@H](CCC(=O)O)NC(=O)[C@H](CCCNC(=N)N)NC(=O)[C@H](Cc1ccccc1)NC(=O)[C@H](CCC(=O)O)NC(=O)[C@H](CC(=O)O)NC(=O)[C@H](CC(C)C)NC(=O)[C@@H](NC(=O)[C@@H]1CCCN1)C(C)C)C(=O)N[C@@H](CCCCN)C(=O)N[C@@H](CCC(N)=O)C(=O)N[C@@H](CCCCN)C(=O)N[C@@H](CC(C)C)C(=O)N[C@@H](CCCCN)C(=O)O [compound 76, PVLDEFRELLFEXLEALKQKLK] (H-PVLDEFRELLFE[Aib]LEALKQKLK-OH) | 66 | 41 | 9 | 88 | 
9 | PVLDLFRELLNEWLEALKQKLK [compound 54] | 78 | 76 | 19 | 71 | 84
10 | PVLDLFRNLLEKLLEALEQKLK [compound 49] | 57 | 57 | 22 | 65 | 52
11 | CC(C)C[C@H](NC(=O)[C@H](C)NC(=O)[C@H](CCC(=O)O)NC(=O)[C@H](Cc1c[nH]c2ccccc12)NC(=O)C(C)(C)NC(=O)[C@H](CCC(=O)O)NC(=O)[C@H](CC(N)=O)NC(=O)[C@H](CC(C)C)NC(=O)[C@H](CCCCN)NC(=O)[C@H](CCC(=O)O)NC(=O)[C@H](CCCNC(=N)N)NC(=O)[C@H](Cc1ccccc1)NC(=O)[C@H](CCC(=O)O)NC(=O)[C@H](CC(=O)O)NC(=O)[C@H](CC(C)C)NC(=O)[C@@H](NC(=O)[C@@H]1CCCN1)C(C)C)C(=O)N[C@@H](CCCCN)C(=O)N[C@@H](CCC(N)=O)C(=O)N[C@@H](CCCCN)C(=O)N[C@@H](CC(C)C)C(=O)N[C@@H](CCCCN)C(=O)O [compound 42, PVLDEFREKLNEXWEALKQKLK] (H-PVLDEFREKLNE[Aib]WEALKQKLK-OH) | 76 | 15 | 25 | 74 | 27
12 | PVLDLFRELLEELKQKLK [compound 210] | 53 | 20 | 46 | 63 | 37
13 | PVLDLFRELLNELLEALKQ [compound 60] | 84 | 39 | 16 | 83 | 66
14 | CC(C)C[C@H](NC(=O)[C@H](C)NC(=O)[C@H](CCC(=O)O)NC(=O)[C@H](CC(C)C)NC(=O)C(C)(C)NC(=O)[C@H](CCC(=O)O)NC(=O)[C@H](CC(N)=O)NC(=O)[C@H](CC(C)C)NC(=O)[C@H](CC(C)C)NC(=O)[C@H](CCC(=O)O)NC(=O)[C@H](Cc1c[nH]c2ccccc12)NC(=O)[C@H](Cc1ccccc1)NC(=O)[C@H](CC(C)C)NC(=O)[C@H](CC(=O)O)NC(=O)[C@H](CC(C)C)NC(=O)[C@@H](NC(=O)[C@@H]1CCCN1)C(C)C)C(=O)N[C@@H](CCCCN)C(=O)N[C@@H](CCC(N)=O)C(=O)N[C@@H](CCCCN)C(=O)N[C@@H](CC(C)C)C(=O)N[C@@H](CCCCN)C(=O)O [compound 51, PVLDLFWELLNEXLEALKQKLK] (H-PVLDLFWELLNE[Aib]LEALKQKLK-OH) | 73 | 63 | 20 | 82 | 81
15 | PVLDLFREWLNELLEALKQKLK [compound 37] | 73 | 65 | 29 | 75 | 76
16 | PVLDLFRELLNEGLEALKQKLK [compound 8] | 93 | 20 | 83 | 90 | 61
